{"source": "patent US6395787B1", "about": "“Ocular hypotensive lipids” (Allergan Sales, Inc., priority 2000, dated 2002)", "key": {"[1]": {"tested_on": "rabbit jugular vein segment", "experiment": "Vasorelaxation of histamine precontracted rabbit jugular vein segment", "description": "Smooth muscle tension of isolated tissues was measured isometrically with force displacement transducers (Grass FT-03) and recorded on Grass Polygraphs (Models 7G and 79E). The organ baths contained Krebs solution maintained at 37° C. and gassed with 95% 02/5% CO2 to give a pH of 7.4. The Krebs solution had the following composition (mM): NaCl, 118.0; KCl, 4.7; KH2PO4, 1.2; CaCl2, 1.9; MgSO4, 1.18; NaHCO3, 25.0; glucose, 11.7; indomethacin, 0.001.\nNew Zealand albino rabbit of either sex, weighing 2-4 kg, were injected with 1000 U heparin into the marginal ear vein and then sacrificed by CO2 gas. The external jugular veins were cleared of fat and adherent connective tissue and removed. The veins were transected and each ring of 3-4 mm length was suspended between two metal hooks in a jacketed organ bath. The tissues were equilibrated for 1 hr under 0.75 g tension, which was readjusted as the tissues relaxed. Single doses of histamine, 10^−5 M then 2-3×10^−6 M, with washing after each dose, were given to contract the tissue and establish responsiveness. The TP-receptor antagonist SQ29548, (Ogletree et al. (1985) J. Pharmacol. Exp. Ther. 234 435-441) at (10^−6 M), was applied for 5 min and then histamine 2-3×10^−6 M was added to elicit the contractile response. After 30 min of pretreatment with the histamine, the relaxant response was tested by adding cumulative doses of the test compounds with 10^−8 M to 10^−7 M PGE2 at the end of each dose-response curve as a reference. A recovery period of 30-50 min was allowed after wash-out of the tissues. Relaxant activity was calculated as % of the control tone elicited by histamine."}, "[2]": {"target": "recombinant feline FP receptor (Felis catus, UniProt A0ABI7XJ69)", "sequence (A0ABI7XJ69 entry or part of it)": "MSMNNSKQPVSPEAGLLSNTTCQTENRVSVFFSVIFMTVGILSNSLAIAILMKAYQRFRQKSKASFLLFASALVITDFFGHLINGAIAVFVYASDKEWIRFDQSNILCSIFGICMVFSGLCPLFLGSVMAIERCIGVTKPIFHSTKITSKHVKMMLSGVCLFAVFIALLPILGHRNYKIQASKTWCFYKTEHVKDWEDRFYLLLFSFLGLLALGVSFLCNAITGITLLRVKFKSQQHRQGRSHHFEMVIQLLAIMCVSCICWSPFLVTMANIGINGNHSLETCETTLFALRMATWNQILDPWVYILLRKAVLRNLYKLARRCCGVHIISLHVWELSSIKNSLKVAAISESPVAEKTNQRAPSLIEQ", "experiment": "Ca2+ signal in HEK-293 cells stably transfected with recombinant feline FP receptor", "type": "cell-based, cat", "details": "HEK-293 cells, recombinant feline FP receptor; read-out: E.C.50, Ca2+ signal", "description": "(§1) Human CRL 1497 cells were plated in culture flasks and fed Dulbecco's modified Eagle's medium (DMEM) containing 10% fetal calf serum, 2 mM 1-glutamine, and 0.05 mg/ml gentacin (all purchased from Gibco, Grand Island, N.Y.). Cell cultures were maintained in a humidified atmosphere of 95% air, 5% CO2 and grown to confluency. Cells were removed from the culture flasks by approximately 1 min treatment with trypsin 0.05%/0.53 mM EDTA in Hanks Balanced Salt Solution (HBSS, Gibco, Grand Island, N.Y.) at 37° C. Proteolytic activity was arrested by adding 5 ml of 10% fetal bovine serum in DMEM. The cells were consecutively washed in Hank's BSS and medium containing 140 mM NaCl, […], 1 mM MgCl2, 1.5 mM CaCl2, 10 mM HEPES: TRIS, 5 mM glucose, 5 mM Na pyruvate, 0.1% bovine serum albumin at pH 7.4: Centrifugation for the washes was performed for 15 minutes at 200 g at room temperature. Cells were counted, resuspended in the above medium and incubated with 2×10^−6 M Fura 2/acetoxymethyl ester in a shaking water bath for 30 minutes at 37° C. The cells were subsequently washed in medium as above and resuspended at a concentration of 2×10^6 cells ml^−1. Aliquots of 0.5 ml cell suspension were then added to autocap microtubes to provide 10^6 cells per experimental determination of intracellular free Ca^2+ concentration ([Ca^2+]i).\n(§2) Fluorescence was measured in a Perkin-Elmer LS-5 fluorescence spectrophotometer at excitation and emission wavelengths of 340 and 492 nm, respectively, with both slits at 10 nm. For each experimental determination 10^6 cells were washed (200×g for 5 min) and suspended in a 2 ml cuvette with buffer containing 120 mM NaCl, 6 mM KCl, 1 mM MgSO4, 1.5 mM CaCl2, 20 mM HEPES, 1 mg ml^−1 glucose and 1 mg ml^−1 Na pyruvate. Stirring was achieved by an overhead-mounted, paddle stirrer with the temperature maintained at 37° C. The cells were lysed with digitonin (10 μl of 100 mg ml^−1 DMSO) to obtain fmax. EGTA (100 mM) and sufficient 10N NaOH to adjust the pH to 8.5 were then successively added to obtain fmin.\nHEK-293 cells were grown in DMEM with 10% fetal bovine serum (FBS), 250 μg ml^−1 G418 (Life Technologies) and 200 μg ml^−1 gentamicin or penicillin/streptomycin. […] For transfection, the cells were grown to 50-60% confluency on 10 cm plates. The plasmid pCEP4 incorporating cDNA inserts for the human FP receptor (20 μg) was added to 500 μl of 250 mM CaCl2. HEPES buffered saline×2 (2×HBSS, 280 mM NaCl, 20 mM HEPES acid, 1.5 mM Na2 HPO4, pH 7.05-7.12) was then added dropwise to a […], with continuous vortexing at room temperature. After 30 min, 9 ml DMEM were added to the mixture. The DNA/DMEM/calcium phosphate mixture was then added to the cells, which had been previously rinsed with 10 ml phosphate buffered saline (PBS). The cells were then incubated for 5 h. at 37° C. in humidified 95% air/5% CO2. The calcium phosphate solution was then removed and the cells were treated with 10% glycerol in DMEM for 2 min. The glycerol solution was then replaced by DMEM with 10% fetal bovine serum (FBS). The cells were incubated overnight and the medium was replaced by DMEM/10% FBS containing 250 μg ml^−1 G418 and penicillin/streptomycin. The following day hygromycin B was added to a final concentration of 200 μg ml^−1.\nTen days after transfection, hygromycin B resistant clones were individually selected and transferred to a separate well on a 24 well plate. […]"}, "[3]": {"target": "human FP receptor (Homo sapiens, UniProt P43088)", "sequence (P43088 whole entry)": "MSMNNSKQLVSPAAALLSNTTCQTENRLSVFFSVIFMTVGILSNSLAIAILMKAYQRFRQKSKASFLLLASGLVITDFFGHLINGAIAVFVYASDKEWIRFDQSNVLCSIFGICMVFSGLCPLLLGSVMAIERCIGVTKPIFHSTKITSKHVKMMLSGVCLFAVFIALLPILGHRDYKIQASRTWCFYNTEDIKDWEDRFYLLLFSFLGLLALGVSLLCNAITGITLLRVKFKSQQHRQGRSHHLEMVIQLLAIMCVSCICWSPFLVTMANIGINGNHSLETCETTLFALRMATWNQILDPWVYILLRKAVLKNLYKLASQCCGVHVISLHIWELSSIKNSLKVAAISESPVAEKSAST", "experiment": "Ca2+ signal in CRL 1497 cells", "type": "cell-based", "parameters": "endogenous in cells; host or cells: CRL 1497 human dermal fibroblasts; Δ[Ca^2+]i mean χ ± SEM: unit not given here", "details": "CRL 1497 cells, n = 4", "description": "as §1, §2"}, "[4]": {"tested_on": "intraocular pressure", "details": "prior art research of the assignee; cited from earlier work"}}, "data": [{"smiles": "CCCCC[C@H](O)/C=C/[C@@H]1[C@@H](C/C=C\\CCCC(=O)O)[C@@H](O)C[C@H]1O", "note": "[PGF2α, reference compound]", "values": [{"measurement": "EC50", "setting": "[1]; Oryctolagus cuniculus, histamine precontracted, read-out: E.C.50, vasorelaxation of the precontracted rabbit jugular vein segment", "result": 5.3, "unit": "nM"}, {"measurement": "endothelium dependent vasorelaxation", "setting": "[1]; histamine precontracted rabbit jugular vein segment", "result": "marked vasorelaxation"}, {"measurement": "EC50", "setting": "[2]", "result": 14, "unit": "nM"}, {"measurement": "Δ[Ca^2+]i mean χ ± SEM", "setting": "[3]; 10^−5 M", "result": "136.7 ± 11.2"}, {"measurement": "Δ[Ca^2+]i mean χ ± SEM", "setting": "[3]; 10^−6 M", "result": "127.4 ± 7.6"}, {"measurement": "Δ[Ca^2+]i mean χ ± SEM", "setting": "[3]; 10^−7 M", "result": "124.1 ± 6.5"}, {"measurement": "Δ[Ca^2+]i mean χ ± SEM", "setting": "[3]; 10^−8 M", "result": "47.7 ± 9.4"}, {"measurement": "Δ[Ca^2+]i mean χ ± SEM", "setting": "[3]; 10^−9 M", "result": "5.6 ± 2.4"}]}, {"smiles": "CCNC(=O)CCC/C=C\\C[C@@H]1[C@@H](/C=C/[C@@H](O)CCc2ccccc2)[C@H](O)C[C@@H]1O", "note": "[prior art compound no. 1]", "values": [{"measurement": "intraocular hypotensive activity", "setting": "[4]", "result": "strong intraocular hypotensive activity"}]}, {"smiles": "CCCCCC(/C=C/[C@H]1C(O)CC(O)[C@@H]1C/C=C\\CCCC(N)=O)OC", "note": "(stereo partly shown) [prior art compound no. 2]", "values": [{"measurement": "intraocular hypotensive activity", "setting": "[4]", "result": "strong intraocular hypotensive activity"}]}]}
